Reference: patent publication US8481586B2, “Pyrrolo[2,3-a] carbazoles and use thereof as PIM kinase inhibitors” (Centre National de la Recherche Scientifique, priority 2008, dated 2013)

Key:
PIM-3 = PIM-3 (Homo sapiens (Human), UniProt Q86V86); assay: inhibition test on kinase PIM-3 (residual activity, IC50); format: biochemical; conditions: for remaining activity at 10 µM: product at 10 μmol/L, Table 2, N.I. = not inhibitory, read-out: Percentage of residual activity PIM-3
Source text: (§1) MKK1, ERK 1, ERK 2, JNK1, JNK2, JNK3, p38a MAPK, p38b MAPK, p38g MAPK, p38s MAPK, ERK8, RSK1, RSK2, PDK1, PKBa, PKBb, SGK1, S6K1, PKA, ROCK2, PRK2, PKCa, PKC zeta, PKD1, MSK1, MNK1, MNK2, MAPKAP-K2, MAPKAP-K3, PRAK, CAMKKa, CAMKKb, CAMK1, SmMLCK, PHK, CHK1, CHK2, GSK3b, CDK2/cyclin A, PLK1, PLK1 (Okadaic acid), Aurora B, Aurora C, AMPK, MARK3, BRSK2, MELK, CK1, CK2, NEK2a, NEK6, NEK7, IKKb, PIM-1, PIM-2, PIM-3, SRPK1, MST2, EF2K, HIPK2, HIPK3, PAK-4, PAK5, PAK6, Src, Lck, CSK.
(§2) The results in terms of residual activity of the kinases after being placed in contact with the compounds of Examples 2, 3 and 5, at a concentration of 10 μM (10 μmol/L), are shown in Table 1 below.
(§3) The higher the residual activity of the kinase tested, the lower the inhibitory activity of the test compounds on the tested kinase.
(§4) The compounds according to the invention were then tested on the kinases PIM-1, PIM-2 and PIM-3.
(§5) The results in terms of percentage of residual activity after placing the compounds according to the invention in contact with each of the kinases PIM-1, PIM-2 and PIM-3 are given in Table 2 below.
(§6) The higher the residual activity, the lower the inhibitory activity of the test compounds.
(§7) The mean inhibitory concentrations (IC50) of certain preferred compounds of the invention were determined in the following manner: the IC50 values were measured after performing the inhibition tests on the kinases PIM-1, PIM-2 and PIM-3 at ten different concentrations for each test compound, and the IC50 value was determined from the dose-inhibition curves obtained.

PIM-2 = PIM-2 (Homo sapiens (Human), UniProt Q9P1W9); assay: inhibition test on kinase PIM-2 (residual activity, IC50); format: biochemical; conditions: product at 10 μmol/L, Table 2, N.I. = not inhibitory; for remaining activity at 10 µM: read-out: Percentage of residual activity PIM-2
PIM-2, sequence (Q9P1W9 whole entry, species assumed): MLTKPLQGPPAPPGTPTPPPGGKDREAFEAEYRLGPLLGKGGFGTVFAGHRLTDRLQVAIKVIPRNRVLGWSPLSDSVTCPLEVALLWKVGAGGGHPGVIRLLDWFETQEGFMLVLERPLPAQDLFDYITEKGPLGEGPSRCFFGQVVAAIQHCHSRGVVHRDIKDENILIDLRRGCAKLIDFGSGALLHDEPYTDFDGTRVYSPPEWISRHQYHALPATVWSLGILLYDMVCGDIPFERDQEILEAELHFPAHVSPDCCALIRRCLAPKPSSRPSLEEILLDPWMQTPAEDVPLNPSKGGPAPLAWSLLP
Source text: as §1, §2, §3, §4, §5, §6, §7

PIM-1 = PIM-1 (Homo sapiens (Human), UniProt P11309); assay: inhibition test on kinase PIM-1 (residual activity, IC50); format: biochemical; conditions: product at 10 μmol/L, Table 2, N.I. = not inhibitory; for remaining activity at 10 µM: read-out: Percentage of residual activity PIM-1
PIM-1, sequence (P11309 whole entry, species assumed): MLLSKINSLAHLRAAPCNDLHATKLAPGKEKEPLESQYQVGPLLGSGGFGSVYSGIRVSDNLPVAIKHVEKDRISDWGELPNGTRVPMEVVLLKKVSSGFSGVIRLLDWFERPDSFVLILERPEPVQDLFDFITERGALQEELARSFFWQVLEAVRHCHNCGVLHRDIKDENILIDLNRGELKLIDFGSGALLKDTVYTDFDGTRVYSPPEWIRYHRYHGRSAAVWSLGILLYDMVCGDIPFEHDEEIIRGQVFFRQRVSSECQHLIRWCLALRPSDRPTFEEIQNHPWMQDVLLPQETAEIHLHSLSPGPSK
Source text: as §1, §2, §3, §4, §5, §6, §7

Compound: O=Cc1c[nH]c2c1ccc1c3cc(-c4ccccc4)ccc3[nH]c12 [Example 38, 7-phenyl-1,10-dihydropyrrolo[2,3-a]carbazole-3-carbaldehyde]
- remaining activity at 10 µM (PIM-3): 15%
- remaining activity at 10 µM (PIM-2): 53%
- remaining activity at 10 µM (PIM-1): 16%

Compound: O=S(=O)(c1ccccc1)n1ccc2ccc3c4ccccc4[nH]c3c21 [Example 1, 1-benzenesulfonyl-1,10-dihydropyrrolo[2,3-a]carbazole]
- remaining activity at 10 µM (PIM-3): 64%
- remaining activity at 10 µM (PIM-2): 62%
- remaining activity at 10 µM (PIM-1): 61%

Compound: N#Cc1ccc2[nH]c3c(ccc4cc[nH]c43)c2c1 [Example 31, 1,10-dihydropyrrolo[2,3-a]carbazole-7-carbonitrile]
- remaining activity at 10 µM (PIM-3): 4%
- remaining activity at 10 µM (PIM-2): 26%
- remaining activity at 10 µM (PIM-1): 9%

Compound: COc1cccc(-c2ccc3[nH]c4c(ccc5c(C=O)c[nH]c54)c3c2)c1 [Example 36, 7-(3-methoxyphenyl)-1,10-dihydropyrrolo[2,3-a]-carbazole-3-carbaldehyde]
- remaining activity at 10 µM (PIM-3): 12%
- remaining activity at 10 µM (PIM-2): 31%
- remaining activity at 10 µM (PIM-1): 17%

Compound: O=Cc1c[nH]c2c1ccc1c3cc([N+](=O)[O-])ccc3[nH]c12 [Example 50, 7-nitro-1,10-dihydropyrrolo[2,3-a]carbazole-3-carbaldehyde]
- remaining activity at 10 µM (PIM-3): 35%
- Percentage of residual activity PIM-2 (PIM-2): N.I.
- Percentage of residual activity PIM-1 (PIM-1): N.I.

Compound: Cc1ccc2c(c1)[nH]c1c2ccc2cc[nH]c21 [Example 35, 8-methyl-1:10-dihydropyrrolo[2,3-a]carbazole]
- remaining activity at 10 µM (PIM-3): 13%
- Percentage of residual activity PIM-2 (PIM-2): N.I.
- remaining activity at 10 µM (PIM-1): 81%

Compound: O=C(c1c[nH]c2c1ccc1c3ccccc3[nH]c12)C(F)(F)F [Example 6, 1-(1,10-dihydropyrrolo[2,3-a]carbazol-3-yl)-2,2,2-trifluoroethanone]
- remaining activity at 10 µM (PIM-3): 7%
- IC50 (PIM-3; ten concentrations, dose-inhibition curve): 170 nM
- remaining activity at 10 µM (PIM-2): 30%
- remaining activity at 10 µM (PIM-1): 20%

Compound: Cc1ccc2c(c1)[nH]c1c2ccc2c(C=O)c[nH]c21 [Example 52, 8-methyl-1,10-dihydropyrrolo[2,3-a]carbazole-3-carbaldehyde]
- remaining activity at 10 µM (PIM-3): 8%
- remaining activity at 10 µM (PIM-2): 39%
- remaining activity at 10 µM (PIM-1): 15%

Compound: Brc1cccc2c1[nH]c1c2ccc2cc[nH]c21 [Example 27, 9-bromo-1,10-dihydropyrrolo[2,3-a]carbazole]
- remaining activity at 10 µM (PIM-3): 43%
- Percentage of residual activity PIM-2 (PIM-2): N.I.
- remaining activity at 10 µM (PIM-1): 90%

Compound: O=Cc1c[nH]c2c1ccc1c3ccc(Br)cc3[nH]c12 [Example 43, 8-bromo-1,10-dihydropyrrolo[2,3-a]carbazole-3-carbaldehyde]
- melting point: > 250 °C
- remaining activity at 10 µM (PIM-3): 15%
- remaining activity at 10 µM (PIM-2): 39%
- remaining activity at 10 µM (PIM-1): 44%

Compound: O=Cc1c[nH]c2c1ccc1c2[nH]c2cccc(Br)c21 [Example 44, 6-bromo-1,10-dihydropyrrolo[2,3-a]carbazole-3-carbaldehyde]
- remaining activity at 10 µM (PIM-3): 5%
- remaining activity at 10 µM (PIM-2): 6%
- remaining activity at 10 µM (PIM-1): 2%
